We go through 2 molecules from publication PMC7504215, “Copper(II) Complexes with Mixed Heterocycle Ligands as Promising Antibacterial and Antitumor Species” (Molecules, 2020).

Read-outs that look alike come from different tables or passages of the source.

Data set [1] deals with MRSA. Put plainly: MIC assay, liquid medium microdilution (planktonic growth). The format is cell-based, Staphylococcus aureus. Particulars: 24 h at 37 °C. As to the method:
(§1) The antibacterial assays were performed on Gram-negative (Escherichia coli ATCC 25922, E. coli 5, Pseudomonas aeruginosa ATCC 27853, P. aeruginosa ATCC 9027) and Gram-positive (Staphylococcus aureus ATCC 25923, S. aureus ATCC 6538, MRSA (Meticillin-resistant S. aureus) 388, ATCC, American Type Culture Collection) bacterial strains. Microbial suspensions (1.5 × 10^8 CFU/mL; colony forming units (CFU)) corresponding to 0.5 McFarland density obtained from 15 to 18-h bacterial cultures developed on solid media were used. The antimicrobial activity was tested on Mueller–Hinton agar medium.
(§2) The quantitative assay of the antimicrobial activity was performed by the liquid medium microdilution method, in 96-well multi-well plates, to establish the minimal inhibitory concentration (MIC). For this purpose, serial two-fold dilutions of the compounds ranging between 1.000 and 1.95 μg/mL were performed in a 200 μL volume of broth and each well was seeded with 50 μL microbial inoculums. Sterility control (wells containing only culture medium) and culture controls (wells containing culture medium seeded with the microbial inoculum) were used. The influence of the DMSO solvent was also quantified in a series of wells containing DMSO, diluted accordingly with the dilution scheme used for the complexes. The plates were incubated for 24 h at 37 °C, and MIC values were considered as the lowest concentration of the tested compound that inhibited the visible growth of the microbial overnight cultures.

The test system of another data set is S. aureus 25923. Described as above. Particulars: S. aureus 25923, 24 h at 37 °C. It counts as cell-based, Staphylococcus aureus. Here is the method: as §1, §2
The subject of data set [2] is S. aureus 6538. The description is as above. It counts as cell-based, Staphylococcus aureus. The note with it: S. aureus 6538, 24 h at 37 °C. As to the method: as §1, §2
Data set [3] concerns MRSA. Kind of data set: MBEC assay, micro-titer method (biofilm). The format is cell-based, Staphylococcus aureus. Here is the method:
as §1
(§3) The assessment of the complexes’ influence on the microbial ability to colonize an inert substratum with the establishment of the minimal biofilm eradication concentration (MBEC) was performed by the micro-titer method, following previously described protocols. The absorbance at 490 nm was measured with an Apollo LB 911ELISA (Berthold Technologies GmbH & Co. KG, Waltham, MA, USA) reader. All experiments were performed in triplicates.

Data set [4] relates to S. aureus 6538. Put plainly: MBEC assay, micro-titer method (biofilm). It counts as cell-based, Staphylococcus aureus. Here is the method: as §1, §3
The subject of data set [5] is normal BJ cell (human fibroblast). Kind of data set: MTT cell viability assay. The format is cell-based. Here is the method: The cytotoxicity of ligand and copper(II) complexes was tested on normal BJ cell as well as on B16 (melanoma) tumor cells, which were grown for 48 h in culture medium containing the tested complexes in 0–25 μg/mL concentration range.
Human fibroblast cells (BJ-ATCC CRL-2522, Manassas, VA, USA) were grown in minimal essential medium (MEM) supplemented with 2 mM L-Glutamine, 10% fetal calf serum (FCS), 100 units/mL of penicillin and 100 µg/mL of streptomycin at 37 °C in a humidified incubator under an atmosphere containing 5% CO2. Mouse melanoma cells (B16-ATCC CRL-6475, Manassas, VA, USA) were grown in DMEM (Dulbecco’s Modified Eagle Medium) supplemented with similar reagents as MEM. All cell cultivation media and reagents were purchased from Biochrom AG (Berlin, Germany) and Sigma-Aldrich (Darmstadt, Germany).
Cell viability was evaluated using 3-(4,5-dimethylthiazol-2-yl)-2,5-diphenyltetrazolium bromide (MTT) assay, as described previously. First, the cells were seeded in 96-well plates (20,000 cells/well) and cultured for 24 h in medium. After overnight incubation, the medium was changed and the investigated sample in concentration varying from […] was added for 24 h. The negative control was represented by cells cultivated in medium without the investigated compounds. Following incubation, the medium was changed and the MTT solution was added to each well to a final concentration of 1 mg/mL and incubated for additional 4 h, at 37 °C. Finally, the medium was collected and DMSO was used to dissolve the insoluble formazan product. The absorbance of the samples was recorded at 570 nm using a plate reader Mithras 940 (Berthold). The data were corrected for the background and the percentage of viable cells was obtained using the equation:Cell viability = [(A570 of treated cells)/(A570 of untreated cells)] × 100%
The half-maximal inhibitory concentration (IC50) was determined by fitting the data with a logistical sigmoidal equation using the software Origin 8.1 from Microcal Inc. (Los Angeles, CA, USA).

Data set [6] deals with Saccharomyces cerevisiae (wild-type, WT) laboratory strain BY4741. Kind of data set: Yeast cell proliferation (toxicity). It counts as cell-based. Particulars: for Effect on cell proliferation: 0.1–0.2 mM final concentration in liquid YPD, compared to cells grown without compounds; for IC50: S. cerevisiae BY4741 (WT), liquid YPD. As to the method:
The Saccharomyces cerevisiae laboratory strain BY4741 (MATa; his3Δ1; leu2Δ0; met15Δ0; ura3Δ0), considered wild type (WT), and the isogenic strains sod1Δ and sod2Δ lacking the genes SOD1 (encoding Cu/Zn-superoxide dismutase) and SOD2 (encoding Mn-superoxide dismutase) were purchased from EUROSCARF (Frankfurt, Germany). Cells were maintained and manipulated and grown in YPD medium (1% w/v yeast extract, 2% w/v peptone, 2% w/v glucose; 2% w/v agar was added for solid media). Complexes were added to autoclaved media from DMSO sterile stocks (10 mM). To determine the effect of compounds on yeast growth, a fresh overnight pre-culture was 10^3-fold diluted in YPD and incubated (200 rpm, 30 °C) until the culture reached a density of 5 × 10^5 cells/mL. At this point, the compounds were added to the desired concentrations, and cell proliferation was monitored at 660 nm in a 96-well multi-scanner autoreader plate reader equipped with a thermostat and shaker (Varioskan Thermo Fischer Scientific, Vantaa, Finland). The uptake of compounds by yeast cells was determined indirectly by measuring the increase of the total cellular copper content normalized to the total cellular protein determined by Bradford assay. All determinations were done on three biological replicates. The IC50 was calculated by nonlinear regression analysis using the Graphpad Prism software.

The nature of data set [7]: Superoxide scavenging ability by EPR spectroscopy. Particulars: 2.5 μM complex in DMSO, O2− 10, 20 and 30 µM. Here is the method:
The superoxide scavenging ability of the complexes was tested using the KO2 compound as a superoxide source combined with EPR spectroscopy. […] The KO2 was dissolved by complexation with dibenzo-18-crown-6-ether.

Regarding `Cc1cc(-c2ccccc2)nc2ncnn12.[Cu+2].[O-][Cl+3]([O-])([O-])[O-].[O-][Cl+3]([O-])([O-])[O-].c1cnc2c(c1)ccc1cccnc12.c1cnc2c(c1)ccc1cccnc12` [(2), [Cu(phen)2(pmtp)](ClO4)2], the MIC against MRSA [1] worked out at 50 µM; in the data set with S. aureus 25923, 10 µM; against S. aureus 6538 [2], 90 µM. For the same molecule, the MBEC value is 0.05 mM in the data set on MRSA [3] and 0.02 mM in the data set with S. aureus 6538 [4]. For the same molecule, the “IC50 BJ Cells 24 h” value in data set [5] (BJ cells, 24 h, MTT) was 5.98 mg/L. For the same molecule, the IC50 worked out at 7 µM in data set [5] (BJ cells, 24 h, MTT, read-out: IC50 BJ Cells 24 h); 4 µM in data set [5] (BJ cells, 48 h, MTT, read-out: IC50 BJ Cells 48 h); 580 ± 210 µM in data set [6]. In addition, the “IC50 BJ Cells 48 h” value in data set [5] (BJ cells, 48 h, MTT) stood at 3.30 mg/L. Besides, in data set [6], the “Effect on cell proliferation” value was “did not significantly affect cell proliferation”. Besides, the “Superoxide scavenging (EPR signal decrease)” value in data set [7] is “trap the superoxide radicals”.

With `Cc1cc(-c2ccccc2)nc2ncnn12.[Cu+2].[O-][Cl+3]([O-])([O-])[O-].[O-][Cl+3]([O-])([O-])[O-].c1ccc(-c2ccccn2)nc1.c1ccc(-c2ccccn2)nc1` [(1), [Cu(bpy)2(pmtp)](ClO4)2], the MIC in the data set with MRSA [1], against S. aureus 25923 and against S. aureus 6538 [2] was 400 µM each time. Also, the MBEC value in the data set on MRSA [3] was determined as 0.40 mM; in the data set on S. aureus 6538 [4], 0.10 mM. Also, in data set [5] (48 h, highest tested concentration (0–25 μg/mL range)), the “Viability of BJ cells” value was found to be 70%. Moreover, in data set [6], the “Effect on cell proliferation” value was “did not significantly affect cell proliferation”. This molecule also displayed an IC50 in data set [6] of 480 ± 160 µM. Further, in data set [7], the “Superoxide scavenging (EPR signal decrease)” value is on record as “trap the superoxide radicals”.
